Measured values: patent US11492348B2, “Tri-substituted aryl and heteroaryl derivatives as modulators of PI3-kinase and autophagy pathways” (Neuropore Therapies, Inc., priority 2018, dated 2022)
Structures can show the parent of a compound that is named as a salt.

What was measured:
PI3Kα = PI3Kα (Homo sapiens (Human), UniProt P42336); assay: Inhibition of PI3Kα (ADP-Glo kinase activity assay, ATP to ADP conversion); type: biochemical; conditions: 25 μM PIP2:PS, 60 μM ATP, 30 min reaction, luminescence
Chain of PI3Kα (P42336 whole entry): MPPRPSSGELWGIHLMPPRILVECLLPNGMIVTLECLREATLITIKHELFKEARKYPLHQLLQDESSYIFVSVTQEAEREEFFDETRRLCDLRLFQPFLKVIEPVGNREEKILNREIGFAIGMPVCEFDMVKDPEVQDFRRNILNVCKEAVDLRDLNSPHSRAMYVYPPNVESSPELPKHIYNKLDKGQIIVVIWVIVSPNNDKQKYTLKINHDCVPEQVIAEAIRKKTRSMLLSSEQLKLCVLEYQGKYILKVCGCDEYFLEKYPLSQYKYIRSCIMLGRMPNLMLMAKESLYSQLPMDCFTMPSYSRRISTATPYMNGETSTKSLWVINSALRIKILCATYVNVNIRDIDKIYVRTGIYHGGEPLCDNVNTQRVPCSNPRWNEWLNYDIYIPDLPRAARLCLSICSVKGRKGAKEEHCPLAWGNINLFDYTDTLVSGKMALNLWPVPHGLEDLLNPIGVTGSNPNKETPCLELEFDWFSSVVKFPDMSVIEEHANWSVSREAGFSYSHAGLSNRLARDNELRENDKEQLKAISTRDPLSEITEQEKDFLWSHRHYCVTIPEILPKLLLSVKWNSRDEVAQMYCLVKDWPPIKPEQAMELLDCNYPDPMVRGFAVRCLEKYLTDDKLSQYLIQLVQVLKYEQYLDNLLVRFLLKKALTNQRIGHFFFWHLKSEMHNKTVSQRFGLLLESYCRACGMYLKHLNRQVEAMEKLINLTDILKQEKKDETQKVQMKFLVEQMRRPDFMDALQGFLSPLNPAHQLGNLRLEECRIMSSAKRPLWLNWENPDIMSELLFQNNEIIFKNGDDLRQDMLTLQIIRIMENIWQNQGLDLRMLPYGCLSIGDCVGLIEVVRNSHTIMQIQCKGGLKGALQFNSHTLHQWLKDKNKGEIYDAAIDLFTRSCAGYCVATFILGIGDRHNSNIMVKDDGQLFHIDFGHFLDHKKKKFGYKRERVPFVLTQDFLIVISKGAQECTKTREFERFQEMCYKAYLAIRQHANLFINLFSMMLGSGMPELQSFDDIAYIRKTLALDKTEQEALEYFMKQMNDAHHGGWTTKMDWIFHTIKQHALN
Chain of PI3Kα (P27986 whole entry partner): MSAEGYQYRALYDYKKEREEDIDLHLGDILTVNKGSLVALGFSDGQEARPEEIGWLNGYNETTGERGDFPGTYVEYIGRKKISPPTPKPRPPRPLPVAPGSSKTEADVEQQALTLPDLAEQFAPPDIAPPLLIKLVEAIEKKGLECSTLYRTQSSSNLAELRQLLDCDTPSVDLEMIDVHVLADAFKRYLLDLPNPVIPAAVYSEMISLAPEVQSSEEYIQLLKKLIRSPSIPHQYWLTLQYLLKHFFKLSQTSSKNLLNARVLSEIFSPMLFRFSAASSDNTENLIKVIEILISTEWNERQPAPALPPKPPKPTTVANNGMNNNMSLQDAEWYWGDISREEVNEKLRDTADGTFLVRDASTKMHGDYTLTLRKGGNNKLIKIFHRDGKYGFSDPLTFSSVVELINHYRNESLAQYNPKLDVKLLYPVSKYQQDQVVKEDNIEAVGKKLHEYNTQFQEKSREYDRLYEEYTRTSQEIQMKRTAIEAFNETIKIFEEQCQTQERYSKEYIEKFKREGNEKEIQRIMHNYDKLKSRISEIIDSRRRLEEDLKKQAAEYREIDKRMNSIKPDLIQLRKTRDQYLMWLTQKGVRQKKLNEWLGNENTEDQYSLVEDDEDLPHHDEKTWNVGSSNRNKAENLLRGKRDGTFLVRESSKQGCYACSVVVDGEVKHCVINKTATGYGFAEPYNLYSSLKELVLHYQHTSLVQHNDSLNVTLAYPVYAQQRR
Protocol: Quantification of ATP to ADP conversion as a measure of PI3Kα activity. Active PI3Kα (Life Technologies), in the presence or absence of PI3Kα inhibitor, was reacted with PIP2:PS (Life Technologies), a substrate specifically optimized for use with Class I PI3 kinases, and ultrapure ATP (Promega). The conversion of ATP to ADP by PI3Kα was measured as luminescence signal via Promega ADP-Glo kinase activity assay. Assay was validated using published PI3Kα inhibitors LY294002, PI-103, BYL719, GDC0198 and also DMSO vehicle control.
Compounds were prepared at 100× final concentration as a 12-point, 1:3 serial-dilution in DMSO series, with DMSO control as 12th point. Compound was then diluted in (25 mM HEPES pH 7.5, 1 mM EGTA, 0.3% CHAPS) prior to addition to PI3Kα. Active PI3Kα diluted to 0.24 ng/μL (1.1 nM) in (50 mM HEPES pH 7.5, 6 mM MgCl2, 1 mM EGTA, 200 mM NaCl, 0.03% CHAPS, 8 mM DTT) was incubated with compound for 0 hr and 3 hr prior to the start of the reaction. 25 μM PIP2:PS and 60 μM ATP were diluted from stock in (25 mM HEPES pH 7.5, 1 mM EGTA, 0.3% CHAPS) and added to initiate the PI3Kα reaction. Reaction time was 30 minutes. ATP to ADP conversion was measured in Luminescence Counts on DTX880 Plate Reader (Beckman Coulter). Compound IC50s were reported using GraphPad Prism software. Analytical method was non-linear regression, 4-parameter curve fit with bottom fit to validated PI3Kα inhibitor reference controls and no top fit (floating top).

[1] = test system: (Ser-473) pAKT in B103 (Rat Neuroblastoma) cells; assay: pAKT protocol: loss of (Ser-473) pAKT by AlphaScreen in insulin-stimulated B103 cells; type: cell-based; conditions: (Ser-473) pAKT/total AKT IC50, 2-hour pretreatment, 2.5 μg/mL insulin 20 minutes
Protocol: Inhibition of the PI3K-AKT-mTOR pathway was measured by quantifying the loss of (Ser-473) pAKT using AlphaScreen (Perkin Elmer). B103 (Rat Neuroblastoma) cells were seeded in serum containing medium (High Glucose DMEM (-Phenol Red)+10% FBS+2× Glutamax+1 mM Sodium Pyruvate+10 mM HEPES+1× Non-Essential Amino Acids+1× Pen/Strep) on a 96-well tissue culture treated plate and grown for 20 hours. Cells were then serum starved in serum free medium (High Glucose DMEM (-Phenol Red)+1× Glutamax+1 mM Sodium Pyruvate+1× Pen/Strep) for 6 hours prior to a 2-hour pretreatment with inhibitors of the pathway, including reference inhibitor LY294002. These inhibitors were prepared at a 200× final concentration as a 6-point, 1:3 serial dilution in DMSO series, with DMSO as the 7th point. The inhibitors were then diluted in experimental medium (High Glucose DMEM (-Phenol Red)+1× Glutamax+1 mM Sodium Pyruvate+1× Pen/Strep+25 mM HEPES+0.1% BSA) and combined with the cells at 1× final concentration in 0.5% DMSO. […] Cells were promptly lysed using Perkin Elmer proprietary lysis buffer and the (Ser-473) pAKT and total AKT contained in the lysate was measured by AlphaScreen. In AlphaScreen, donor beads were coated with streptavidin to capture one of the antibodies, which is biotinylated. Acceptor beads were coated with Protein A to immobilize the other antibody. In the presence of target protein, the two antibodies bring the donor and acceptor beads close together, generating signal. The amount of light emission is directly proportional to the amount of target protein present in the sample. For each inhibitor tested: the ratio of measured (Ser-473) pAKT/totalAKT was plotted in GraphPad Prism as a 7-point, non-linear regression, 4-parameter curve with bottom constrained to reference control bottom and unconstrained top anchored to DMSO.

Row | Compound | PI3Ka IC50 (PI3Kα) | IC50 [1]
1 | NCCNc1ncc(-c2cc(N3CCOCC3)cc(S(=O)(=O)Cc3ccc(F)cc3)c2)cn1 [47 (as a HCl salt), N1-(5-(3-((4-fluorobenzyl)sulfonyl)-5-morpholinophenyl)pyrimidin-2-yl)ethane-1,2-diamine] | 1.2 µM | 2.18 µM
2 | Nc1ncc(-c2cc(N3CCOCC3)cc(S(=O)(=O)C3CCCCC3)c2)cn1 [Compound 49, 5-(3-(cyclohexylsulfonyl)-5-morpholinophenyl)pyrimidin-2-amine] | 0.49 µM | 31.1 µM
3 | Nc1ncc(-c2cc(N3CCOCC3)cc(S(=O)(=O)Cc3ccc(N4CCOCC4)cc3)c2)cn1 [Compound 58, 5-(3-morpholino-5-((4-morpholinobenzyl)sulfonyl)phenyl) pyrimidin-2-amine] |  | 41.3 µM
4 | Nc1ncc(-c2cc(N3CCOCC3)cc(S(=O)(=O)CC3CCCCC3)c2)cn1 [Compound 60, 5-(3-((cyclohexylmethyl)sulfonyl)-5-morpholinophenyl)pyrimidin-2-amine] | 0.81 µM | 31.1 µM
5 | Nc1ncc(-c2cc(N3CCOCC3)cc(S(=O)(=O)Cc3ccc4[nH]cnc4c3)c2)cn1 [Compound 63, 5-(3-(((1H-benzo[d]imidazol-5-yl)methyl)sulfonyl)-5-morpholinophenyl)pyrimidin-2-amine] | 0.47 µM | 3.71 µM
6 | Nc1cc(C(F)(F)F)c(-c2cc(N3CCOCC3)cc(S(=O)(=O)[C@@H]3CCOC3)c2)cn1 [Compound 71, (R)-5-(3-morpholino-5-((tetrahydrofuran-3-yl)sulfonyl)phenyl)-4-(trifluoromethyl)pyridin-2-amine] | 9.1 µM | 11.2 µM
7 | Nc1ncc(-c2cc(N3CCOCC3)cc(S(=O)(=O)C3CCOC3)c2)c(C(F)(F)F)n1 (stereo not shown) [Compound 72, 5-(3-morpholino-5-((tetrahydrofuran-3-yl)sulfonyl)phenyl)-4-(trifluoromethyl)pyrimidin-2-amine] | 0.46 µM | 9.13 µM
8 | CCC(=O)N1CC(S(=O)(=O)c2cc(-c3cnc(N)nc3)cc(N3CCOCC3)c2)C1 [Compound 75, 1-(3-((3-(2-aminopyrimidin-5-yl)-5-morpholinophenyl)sulfonyl)azetidin-1-yl)propan-1-one] | 0.25 µM | 6.4 µM
9 | CC(C)C(=O)N1CC(S(=O)(=O)c2cc(-c3cnc(N)nc3)cc(N3CCOCC3)c2)C1 [Compound 76, 1-(3-((3-(2-aminopyrimidin-5-yl)-5-morpholinophenyl)sulfonyl)azetidin-1-yl)-2-methylpropan-1-one] | 0.30 µM | 5.64 µM
10 | Nc1ncc(-c2cc(N3CCOCC3)cc(S(=O)(=O)C3CN(C(=O)C4CC4)C3)c2)cn1 [Compound 77, (3-((3-(2-aminopyrimidin-5-yl)-5-morpholinophenyl)sulfonyl)azetidin-1-yl)(cyclopropyl)methanone] | 0.10 µM | 3.19 µM
11 | Nc1ncc(-c2cc(N3CCOCC3)cc(S(=O)(=O)C3CN(C(=O)Cc4ccc(F)cc4)C3)c2)cn1 [Compound 78, 1-(3-((3-(2-aminopyrimidin-5-yl)-5-morpholinophenyl)sulfonyl)azetidin-1-yl)-2-(4-fluorophenyl)ethan-1-one] | 0.18 µM | 4.52 µM

More lines, now with the values ahead:

Row | PI3Ka IC50 (PI3Kα) | IC50 [1] | Compound
12 | 0.21 µM | 5.02 µM | Nc1ncc(-c2cc(N3CCOCC3)cc(S(=O)(=O)C3CN(C(=O)c4ccc(F)cc4)C3)c2)cn1 [Compound 79, (3-((3-(2-aminopyrimidin-5-yl)-5-morpholinophenyl)sulfonyl)azetidin-1-yl)(4-fluorophenyl)methanone]
13 | 0.062 µM | 26.4 µM | NC(=O)N1CC(S(=O)(=O)c2cc(-c3cnc(N)nc3)cc(N3CCOCC3)c2)C1 [Compound 81, 3-((3-(2-aminopyrimidin-5-yl)-5-morpholinophenyl)sulfonyl)azetidine-1-carboxamide]
14 | 0.29 µM | 10.8 µM | Nc1ncc(-c2cc(N3CCOCC3)cc(S(=O)(=O)CCc3ccc(F)cc3)c2)cn1 [Compound 82, 5-(3-((4-fluorophenethyl)sulfonyl)-5-morpholinophenyl)pyrimidin-2-amine]
15 | 0.34 µM | 8.47 µM | CC(=O)N1CCC(S(=O)(=O)c2cc(-c3cnc(N)nc3)cc(N3CCOCC3)c2)CC1 [Compound 83, 1-(4-((3-(2-aminopyrimidin-5-yl)-5-morpholinophenyl)sulfonyl)piperidin-1-yl)ethan-1-one]
16 | 0.15 µM | 2.91 µM | CC(C)(C)NC(=O)N1CC(S(=O)(=O)c2cc(-c3cnc(N)nc3)cc(N3CCOCC3)c2)C1 [Compound 92, 3-((3-(2-aminopyrimidin-5-yl)-5-morpholinophenyl)sulfonyl)-N-(tert-butyl)azetidine-1-carboxamide]
17 | 0.11 µM | 19.8 µM | COCNC(=O)N1CC(S(=O)(=O)c2cc(-c3cnc(N)nc3)cc(N3CCOCC3)c2)C1 [Compound 94, 3-((3-(2-aminopyrimidin-5-yl)-5-morpholinophenyl)sulfonyl)-N-(methoxymethyl)azetidine-1-carboxamide]
18 | 0.12 µM | 5.19 µM | CN(C)C(=O)N1CC(S(=O)(=O)c2cc(-c3cnc(N)nc3)cc(N3CCOCC3)c2)C1 [Compound 95, 3-((3-(2-aminopyrimidin-5-yl)-5-morpholinophenyl)sulfonyl)-N,N-dimethylazetidine-1-carboxamide]
19 | 1.4 µM | 1.06 µM | Nc1ccc(-c2cc(N3CCOCC3)cc(S(=O)(=O)Cc3ccc(F)cc3F)c2)nn1 [Compound 96, 6-(3-((2,4-difluorobenzyl)sulfonyl)-5-morpholinophenyl)pyridazin-3-amine]
20 | 0.51 µM | 12.4 µM | Nc1ncc(-c2cc(N3CCOCC3)cc(S(=O)(=O)Cc3ccncc3)c2)cn1 [Compound 97, 5-(3-morpholino-5-((pyridin-4-ylmethyl)sulfonyl)phenyl)pyrimidin-2-amine]
21 | 1.6 µM | 48.2 µM | Nc1ncc(-c2cc(N3CCOCC3)cc(S(=O)(=O)[C@@H]3CCOC3)c2)cc1C(F)(F)F [Compound 100, (R)-5-(3-morpholino-5-((tetrahydrofuran-3-yl)sulfonyl)phenyl)-3-(trifluoromethyl)pyridin-2-amine]
22 | 0.88 µM | 8.53 µM | Nc1ccc(-c2cc(N3CCOCC3)cc(S(=O)(=O)[C@@H]3CCOC3)c2)cn1 [Compound 101, (R)-5-(3-morpholino-5-((tetrahydrofuran-3-yl)sulfonyl)phenyl)pyridin-2-amine]
23 | 0.54 µM | 6.79 µM | O=C(C1CC1)N1CC(S(=O)(=O)c2cc(-c3cnc(NC4CC4)nc3)cc(N3CCOCC3)c2)C1 [Compound 102, cyclopropyl(3-((3-(2-(cyclopropylamino)pyrimidin-5-yl)-5-morpholinophenyl)sulfonyl)azetidin-1-yl)methanone]
24 | 0.68 µM | 5.81 µM | O=S(=O)(c1cc(-c2cnc(NC3CC3)nc2)cc(N2CCOCC2)c1)C1CCOC1 (stereo not shown) [Compound 103, N-cyclopropyl-5-(3-morpholino-5-((tetrahydrofuran-3-yl)sulfonyl)phenyl)pyrimidin-2-amine]
25 | 0.69 µM | 4.72 µM | CNc1ccc(-c2cc(N3CCOCC3)cc(S(=O)(=O)[C@@H]3CCOC3)c2)cn1 [Compound 108, (R)-N-methyl-5-(3-morpholino-5-((tetrahydrofuran-3-yl)sulfonyl)phenyl)pyridin-2-amine]
